Experiments:
[1] = Oral bioavailability in rat; assay type: ADME, organism-based; details: in vivo
[2] = biological target: T1, 5-hydroxytryptamine receptor 6 (Homo sapiens, UniProt P50406); experiment: Displacement of [3H]LSD from human recombinant 5HT6 receptor
[3] = Half life in dog liver microsomes; assay type: ADME, Canis lupus familiaris, Microsome
[4] = Half life in mouse liver microsomes; assay type: ADME, Microsome
[5] = Half life in rat liver microsomes; assay type: ADME, Microsome
[6] = Half life in human liver microsomes; assay type: ADME, Microsome
[7] = biological target: 5-hydroxytryptamine receptor 6 (Rattus norvegicus, UniProt P31388); experiment: Displacement of [3H]LSD from rat recombinant 5HT6 receptor
[8] = biological target: T1, 5-hydroxytryptamine receptor 6; experiment: Antagonist activity at human 5HT6 receptor expressed in human astrocytoma cells assessed as inhibition of cAMP production; assay type: functional, cell-based

T1 sequence (P50406 whole entry): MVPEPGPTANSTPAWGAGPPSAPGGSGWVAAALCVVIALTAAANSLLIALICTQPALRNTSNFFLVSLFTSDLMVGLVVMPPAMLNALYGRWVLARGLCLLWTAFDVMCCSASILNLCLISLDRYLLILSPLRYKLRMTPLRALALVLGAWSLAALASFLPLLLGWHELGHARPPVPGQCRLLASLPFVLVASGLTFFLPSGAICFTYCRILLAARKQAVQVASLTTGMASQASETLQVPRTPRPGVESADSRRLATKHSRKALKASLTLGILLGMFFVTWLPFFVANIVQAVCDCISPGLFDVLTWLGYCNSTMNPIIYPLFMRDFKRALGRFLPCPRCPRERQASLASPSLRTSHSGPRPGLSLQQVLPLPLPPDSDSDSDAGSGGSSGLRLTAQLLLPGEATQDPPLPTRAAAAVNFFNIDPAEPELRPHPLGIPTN
5-hydroxytryptamine receptor 6 (Rattus norvegicus, UniProt P31388), sequence (P31388 whole entry): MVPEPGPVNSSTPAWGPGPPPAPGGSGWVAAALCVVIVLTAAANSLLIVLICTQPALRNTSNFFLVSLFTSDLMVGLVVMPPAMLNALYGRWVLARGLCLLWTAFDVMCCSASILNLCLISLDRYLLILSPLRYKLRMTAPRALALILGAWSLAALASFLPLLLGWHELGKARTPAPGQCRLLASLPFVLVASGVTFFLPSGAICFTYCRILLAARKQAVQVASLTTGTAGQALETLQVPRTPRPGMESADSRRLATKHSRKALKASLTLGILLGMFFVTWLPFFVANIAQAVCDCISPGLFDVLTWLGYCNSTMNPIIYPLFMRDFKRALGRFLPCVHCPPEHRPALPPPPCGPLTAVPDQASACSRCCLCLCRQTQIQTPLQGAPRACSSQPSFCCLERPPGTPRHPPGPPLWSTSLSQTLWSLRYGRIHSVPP

Row | Ki [2] [nM] | Ki [7] [nM] | IC50 [8] [nM] | other results | SMILES
1 | 2.9 |  |  | bioavailability [1]: 7%; half-life [3]: 10 min; half-life [4]: < 5 min; half-life [5]: < 5 min; half-life [6]: > 40 min | Cl.O=S(=O)(c1ccccc1)c1ccc2c3c(oc2c1)CNCC3
2 | 83 |  |  | bioavailability [1]: 15%; half-life [3]: > 40 min; half-life [4]: > 40 min; half-life [5]: > 40 min; half-life [6]: > 40 min | Cl.O=S(=O)(c1ccccc1)c1ccc2c(c1)O[C@H]1CNCC[C@@H]21 (racemic)
3 | 32 | 145 | 179 |  | O=S(=O)(c1ccc2c(c1)O[C@H]1CNCC[C@@H]21)c1ccccc1F (racemic)
4 | 38 | 206 | 133 |  | O=S(=O)(c1ccc2c(c1)O[C@H]1CNCC[C@@H]21)c1ccccc1Cl (racemic)
5 | 15 | 136 | 135 |  | O=S(=O)(c1ccc2c(c1)O[C@H]1CNCC[C@@H]21)c1ccccc1-c1ccccc1 (racemic)
6 | 21 | 52 | 33 |  | O=S(=O)(c1cccc(F)c1)c1ccc2c(c1)O[C@H]1CNCC[C@@H]21 (racemic)
7 | 11 | 40 | 27 |  | O=S(=O)(c1cccc(Cl)c1)c1ccc2c(c1)O[C@H]1CNCC[C@@H]21 (racemic)
8 | 37 | 243 | 227 |  | Cc1cccc(S(=O)(=O)c2ccc3c(c2)O[C@H]2CNCC[C@@H]32)c1 (racemic)
9 | 48 |  | 357 |  | O=S(=O)(c1cccc(C(F)(F)F)c1)c1ccc2c(c1)O[C@H]1CNCC[C@@H]21 (racemic)
10 | 85 |  | 281 |  | COc1cccc(S(=O)(=O)c2ccc3c(c2)O[C@H]2CNCC[C@@H]32)c1 (racemic)
11 | 23 | 156 | 306 |  | CC(C)Oc1cccc(S(=O)(=O)c2ccc3c(c2)O[C@H]2CNCC[C@@H]32)c1 (racemic)
12 | 562 |  |  |  | COCCOc1cccc(S(=O)(=O)c2ccc3c(c2)O[C@H]2CNCC[C@@H]32)c1 (racemic)
13 | 203 |  |  |  | COCCCOc1cccc(S(=O)(=O)c2ccc3c(c2)O[C@H]2CNCC[C@@H]32)c1 (racemic)
14 | 385 |  |  |  | O=S(=O)(c1ccc(F)cc1)c1ccc2c(c1)O[C@H]1CNCC[C@@H]21 (racemic)
15 | 64 | 236 | 245 |  | Cc1ccc(S(=O)(=O)c2ccc3c(c2)O[C@H]2CNCC[C@@H]32)cc1 (racemic)
16 | 49 |  |  |  | CC(C)Oc1cc(F)cc(S(=O)(=O)c2ccc3c(c2)O[C@H]2CNCC[C@@H]32)c1 (single isomer, unassigned; enantiomer 1)

Source: ChEMBL document CHEMBL1949541, “Discovery of 7-arylsulfonyl-1,2,3,4, 4a,9a-hexahydro-benzo[4,5]furo[2,3-c]pyridines: identification of a potent and selective 5-HT₆ receptor antagonist showing activity in rat social recognition test” (Bioorg Med Chem Lett, 2012)
